Consider twelve compounds from patent US6498254B1, “Antiretroviral compounds and compositions” (Uniroyal Chemical Company, Inc., priority 2001, dated 2002).

The subject of one data set is HIV-1 (IIIB). The data set is described as follows: Inhibition of HIV-1 syncytium formation in CEM cells. In kind it is cell-based. To be noted: for EC50: read-out: EC50 (μg/ml) HIV-1; for HIV-1 % Protection: protection of CEM cells against virus-induced cytopathicity at the compound concentration in the previous column. The text has this:
(§1) The cell type used to determine activity of the compounds of the invention herein, i.e., the test compounds, against HIV was human T-lymphoblast (CEM) cells obtained from the American Tissue Cell Culture Collection (Rockville, Md.). HIV-1 (IIIB) was originally obtained from the culture of persistently HIV-1 infected H9 cells and was provided by R. C. Gallo and M. Popovic (National Cancer Institute, National Institutes of Health, Bethesda, Md.). HIV-2 (ROD) was originally obtained from L. M. Montagnier (Pasteur Institute, Paris, France).
(§2) To determine the antiviral activity of the test compounds, CEM cells were suspended at a cell density of approximately 300,000 cells per ml of culture medium and infected with approximately 100 CClD50 (100 CClD50 being the 50% cell culture infective dose) of HIV-1 (IIIB) or HIV-2 (ROD)). Then 100 μl of the infected cell suspensions was added to 200 μl micro titer plate wells containing 100 μl of appropriate serial (5-fold) dilutions of the test compounds. The inhibitory effect of the test compounds on HIV-1 or HIV-2 syncytium formation in CEM cells was examined microscopically on day four post infection. The 50% effective concentration (EC50) was defined as the test compound concentration that inhibits syncytium formation in the HIV-1 or HIV-2 infected cell cultures by 50%.
(§3) In some cases, the compounds had considerable cytotoxicity to CEM cells which made determination of the EC50 difficult. In these cases, the percent protection of the cells against virus-induced cytopathicity by the test compounds at the indicated compound concentration in the previous column is given.

The next data set has as its system CMV Davis strain. Description: Activity against HCMV: virus-induced cytopathicity in HEL cells. To be noted: for IC50: read-out: Antiviral IC50 (μg/ml) Davis strain; for Antiviral % Inhibition Davis strain: estimate of percent protection of HEL cells at the compound concentration. In kind it is cell-based, human cytomegalovirus (HCMV). The procedure: Confluent HEL cells grown in […] microtiter plates were inoculated with CMV at an input of 100 PFU (plaque forming units) per well. After a one to two hour incubation period, residual virus was removed and the infected cells were further incubated with MEM (Minimal Essential Medium) (supplemented with 2% inactivated Fetal Calf Serum (FCS), […], and 0.3% sodium bicarbonate) containing varying concentrations of the test compounds. Antiviral activity was expressed as EC50 (50% effective concentration), or test compound concentration required to reduce virus-induced cytopathicity after seven days by 50% compared to the untreated control.
In some cases, the compounds had considerable cytotoxicity against HEL cells, which made determination of the EC50's difficult. In these cases, an estimate of the percent protection at the compound concentration indicated in the previous columns is given.

The next data set relates to HIV-2 (ROD). Description: Inhibition of HIV-2 syncytium formation in CEM cells. In kind it is cell-based. To be noted: for EC50: Human immunodeficiency virus 2, CCRF-CEM, read-out: EC50 (μg/ml) HIV-2; for HIV-2 % Protection: protection of CEM cells against virus-induced cytopathicity at the compound concentration in the previous column.
Source text: as §1, §2, §3
(In general: Damage to the host cells serves as the signal in cytopathic effect assays.)

The mark [1] stands for this setting: Human immunodeficiency virus 1, CCRF-CEM, HIV-1 (IIIB) infected CEM cells, syncytium formation, day four post infection.
Where [2] appears, read: Human betaherpesvirus 5, 168 h, CMV-infected HEL cells, virus-induced cytopathicity after seven days.
The mark [3] stands for this setting: HIV-2 (ROD) infected CEM cells, syncytium formation, day four post infection.
[4] abbreviates: Human immunodeficiency virus 1, IIIB, CCRF-CEM.
The mark [5] stands for this setting: Human betaherpesvirus 5, HEL, 168 h.

Converted amounts (≈) assume the structure as drawn. Like-named read-outs stand apart in the source and are kept apart here. Some results are limits rather than exact numbers.

Usually melting point stands for the temperature, or range, at which the solid turns liquid. `Cc1ccc(C)c(C(C)S(=O)(=O)c2cc(C)cc(C)[n+]2[O-])c1` (centres unmarked) [Compound 81, 2-[1-(2,5-dimethylphenyl)ethylsulfonyl]-4,6-dimethylpyridine-N-oxide] returned a melting point of 201 to 204 °C. Moreover, the EC50 in the data set with HIV-1 (IIIB) (setting [1]) is no less than 20 µg/mL. Further, the “HIV-1 % Protection” value with HIV-1 (IIIB) is 37.5%. The IC50 in the data set on CMV Davis strain (setting [2]) is 8.6 µg/mL (≈ 26.9 µM). The EC50 in the data set with HIV-2 (ROD) (setting [3]) is greater than 20 µg/mL. In the data set with HIV-2 (ROD), the “HIV-2 % Protection” value worked out at 0.0%.
With `O=[N+]([O-])c1cc(CS(=O)(=O)c2cccc[n+]2[O-])ccc1Cl` [Compound 64, 2-[[(3-nitro-4-chlorophenyl)methyl]sulfonyl]pyridine-N-oxide], the melting point was in the range of 168 to 170 °C. Further, the EC50 with HIV-1 (IIIB) (setting [1]) worked out at 1.5 µg/mL (≈ 4.56 µM). In addition, in the data set with CMV Davis strain (setting [2]), the IC50 was greater than 5 µg/mL. Moreover, the “Antiviral % Inhibition Davis strain” value with CMV Davis strain is 10.0%. In the data set on HIV-2 (ROD) (setting [3]), the EC50 came out at 1.9 µg/mL (≈ 5.78 µM).
The compound `Cc1ccc(C)c(C(Cl)S(=O)(=O)c2ccccn2)c1` (centres unmarked) [Compound 106, 2[(2,5-dimethylphenyl)chloromethylsulfonyl]pyridine] came in with a melting point of 117 to 119 °C. Further, in the data set with HIV-1 (IIIB) (setting [1]), the EC50 turned out to be 0.9 µg/mL (≈ 3.04 µM). Further, the IC50 with CMV Davis strain (setting [2]) came out at 20 µg/mL (≈ 67.6 µM). For the same compound, the EC50 with HIV-2 (ROD) (setting [3]) was greater than 4 µg/mL. The “HIV-2 % Protection” value in the data set with HIV-2 (ROD) came out at 0.0%.
With `Cc1ccc(C)c(C(C)S(=O)(=O)c2cccc(Cl)[n+]2[O-])c1` (centres unmarked) [Compound 76, 2-[1-(2,5-dimethylphenyl)ethylsulfonyl]-6-chloropyridine-N-oxide], the melting point lay in the range of 197 to 200 °C. Further, the EC50 in the data set on HIV-1 (IIIB) (setting [1]) was 0.9 µg/mL (≈ 2.76 µM). In addition, in the data set on CMV Davis strain (setting [2]), the IC50 is greater than 9.1 µg/mL. Besides, the EC50 in the data set on HIV-2 (ROD) (setting [3]) is 2.4 µg/mL (≈ 7.37 µM).
In the case of `[O-][n+]1c(Cl)cccc1SCc1ccccc1` [Compound 149, 6-chloro-(2-benzylthio)pyridine-N-oxide], the melting point was 112 to 115 °C. For the same compound, in the data set on HIV-1 (IIIB) (setting [4]), the EC50 came out at 9 µg/mL (≈ 35.8 µM). The IC50 with CMV Davis strain (setting [5]) came to 20 µg/mL (≈ 79.4 µM). Further, in the data set with HIV-2 (ROD), the EC50 was 16 µg/mL (≈ 63.6 µM).
On to `Cc1ccc(C)c(C(C)Sc2cc(C)c3ccccc3n2)c1` (centres unmarked) [Compound 162, 2-[[1-(2,5-dimethylphenyl)ethyl]thio]-4-methylquinoline], for which the melting point is 84 to 85 °C. Moreover, the EC50 in the data set on HIV-1 (IIIB) (setting [4]) was greater than 0.8 µg/mL. Further, in the data set with HIV-1 (IIIB), the “HIV-1 % Protection” value was determined as 0.0%. For the same compound, in the data set on CMV Davis strain (setting [5]), the IC50 turned out to be 1.6 µg/mL (≈ 5.2 µM). Further, in the data set with HIV-2 (ROD), the EC50 is greater than 0.16 µg/mL and the “HIV-2 % Protection” value was 0.0%.
`Cc1ccc[n+]([O-])c1SCc1c(Cl)cccc1Cl` [Compound 137, 2-[[(2,6-dichlorophenyl)methyl]thio]-3-methyl-pyridine-N-oxide]: the EC50 with HIV-1 (IIIB) (setting [4]) was greater than 20 µg/mL. For the same compound, the “HIV-1 % Protection” value in the data set with HIV-1 (IIIB) was 0.0%. The IC50 with CMV Davis strain (setting [5]) was determined as 28 µg/mL (≈ 93.3 µM). In addition, in the data set with HIV-2 (ROD), the EC50 is greater than 20 µg/mL and the “HIV-2 % Protection” value is 0.0%.
Regarding “1,4[1,2,4,5-tetramethylbenzyl]-bis-(2′-sulfonylpyridine-N-oxide) [Compound 25]”, the “EC50 (μg/ml) HIV-1” value with HIV-1 (IIIB) (HIV-1 (IIIB) infected CEM cells, syncytium formation, day four post infection) was found to be 10.00 µg/mL. Moreover, in the data set with CMV Davis strain (CMV-infected HEL cells, virus-induced cytopathicity after seven days), the “Antiviral IC50 (μg/ml) Davis strain” value is 16.0 µg/mL. Besides, in the data set with HIV-2 (ROD), the “HIV-2 % Protection” value was 37.5%.
As to `Cc1ccc(C)c(C(C)S(=O)(=O)c2ccccn2)c1` (centres unmarked) [Compound 161, 2-[1-(2,5-dimethylphenyl)ethylsulfonyl]pyridine], the figures for the EC50 with HIV-1 (IIIB) (setting [1]) and with HIV-2 (ROD) (setting [3]) were 9.5 µg/mL (≈ 34.5 µM) and greater than 100 µg/mL, respectively. The IC50 in the data set with CMV Davis strain (setting [2]) was determined as 38 µg/mL (≈ 138 µM). Moreover, in the data set with HIV-2 (ROD), the “HIV-2 % Protection” value worked out at 0.0%.
For `Cc1ccc(N)cc1C(C)S(=O)(=O)c1cccc[n+]1[O-]` (centres unmarked) [Compound 1, 2-[[1-(5-amino-2-methylphenyl)ethyl]sulfonyl]pyridine-N-oxide], the EC50 came to 20 µg/mL (≈ 68.4 µM) with HIV-1 (IIIB) (setting [1]) and 41 µg/mL (≈ 140 µM) in the data set on HIV-2 (ROD) (setting [3]). The IC50 in the data set on CMV Davis strain (setting [2]) was greater than 50 µg/mL. In the data set with CMV Davis strain, the “Antiviral % Inhibition Davis strain” value is recorded as 0.0%.
For the compound `Cc1cc(CS(=O)(=O)c2cccc[n+]2[O-])ccc1[N+](=O)[O-]` [Compound 66, 2-[[(3-methyl-4-nitrophenyl)methyl]sulfonyl]pyridine-N-oxide], the EC50 amounted to 3.1 µg/mL (≈ 10.1 µM) in the data set with HIV-1 (IIIB) (setting [1]) and 2.5 µg/mL (≈ 8.11 µM) in the data set on HIV-2 (ROD) (setting [3]). The IC50 in the data set with CMV Davis strain (setting [2]) worked out at 5 µg/mL (≈ 16.2 µM).
With `CCc1cccc2c(C)cc(S(=O)(=O)C(C)c3ccccc3)nc12` (centres unmarked) [Compound 107, 8-ethyl-4-methyl-2-[(1-phenylethyl)sulfonyl]quinoline], the EC50 was 0.65 µg/mL (≈ 1.91 µM) in the data set with HIV-1 (IIIB) (setting [1]) and greater than 100 µg/mL in the data set with HIV-2 (ROD) (setting [3]). Moreover, in the data set on CMV Davis strain (setting [2]), the IC50 was greater than 20 µg/mL. Moreover, in the data set with CMV Davis strain, the “Antiviral % Inhibition Davis strain” value is 0.0%.
